Experimental data published in patent US6495133B1, “Gliocladium roseum strains useful for the control of fungal pathogens in plants” (priority 1998, dated 2002).
Like-named read-outs stand apart in the source and are kept apart here.

How the values were obtained:
field pea [1] = experiment: Comparison and compatibility of ACM941 with thiram fungicide, field pea, field experiments; assay type: in vivo
Fusarium solani [2] = experiment: Control of fusarium root rot in field pea, growth room experiments; conditions: Field pea (cv. Radley)
Method: (§1) In growth room experiments, seeds were planted in wood planting flats (35.5×47.0×9.0 cm) containing soil mixture of 2:1:1 of soil, perlite and peat moss. The soil mixture was pasteurized and mixed at about 2% v/v with artificially infested vermiculite that was moistened with 0.4% malt extract, autoclaved, inoculated with B. solani, and incubated at 20° C. for 7 days prior to the planting. […] For each treatment 100 seeds were planted in each of the 4-replicate flats. The planted flats were placed in a growth room maintained at 20° C. and with a 14-h photoperiod at 350 mol.m^−2.s^−1 light intensity by fluorescent and incandescent lamps. All experiments were arranged in a completely randomized block design. Emergence was counted 7 days after planting and other parameters were assessed after digging out plants 14 to 16 days after planting. Disease severity was rated on a scale of 0 (no visible lesions on lower stem and roots, seedling is well developed) to 9 (death of plant, the seedling died back quickly after emergence).

Sclerotinia sclerotiorum [3] = experiment: Control of sclerotinia rot in field pea, field experiments; assay type: in vivo
Rhizoctonia solani = experiment: Control of rhizoctonia root rot in field pea, field experiments; assay type: in vivo
Aphanomyces euteiches = experiment: Control of aphanomyces root rot in field pea, field experiments; assay type: in vivo
Fusarium oxysporum = experiment: Control of fusarium wilt in field pea, growth room experiments; conditions: Field pea (cv. Radley)
Method: as §1

[4] = test system: Fusarium graminearum, Bipolaris sorokiniana, F. avenaceum, Alternaria alternata, and other Fusarium species (naturally infected seeds); assay type: in vivo
Mycosphaerella pinodes [5] = experiment: Control of mycosphaerella seedling blight/root rot in field pea, field experiments; assay type: in vivo
Fusarium solani [6] = experiment: Control of fusarium root rot in field pea, field experiments; assay type: in vivo
Mycosphaerella pinodes [7] = experiment: Control of mycosphaerella seedling blight/root rot in field pea, growth room experiments; conditions: Field pea (cv. Radley)
Method: as §1

Fusarium oxysporium = experiment: Control of fusarium wilt in field pea, field experiments; assay type: in vivo
Sclerotinia sclerotiorum [8] = experiment: Control of sclerotinia rot in field pea, growth room experiments
Method: as §1
The seed treatment procedures, inoculum preparation, inoculation and assessment methods for both growth room and field experiments were the same as described above.

field pea [9] = experiment: Effect of seeding dates on efficacy of seed treatment, field experiments; assay type: in vivo; on yield: unit not given here
[10] = Lacombe site, average of two cultivars and two years
[11] = Morden site, average of two cultivars and two years
[12] = barley, average of the two cultivars
[13] = Optimum seeding, 1995, AC Tamor
[14] = Optimum seeding, 1996, AC Tamor

CN(C)C(=S)SSC(=S)N(C)C [Thiram, thiram]
increased emergence by (field pea [1]; [10]): 4% | reduced yield by (field pea [1]; [10]): 4% | Emergence (field pea [1]; Lacombe, Alberta, 1996, Grande): 87.2 a | Yield (field pea [1]; Lacombe, Alberta, 1996, Grande): 8729 a | Emergence (field pea [1]; Lacombe, Alberta, 1996, Radley): 84.0 a | Yield (field pea [1]; Lacombe, Alberta, 1996, Radley): 5782 a | Emergence (field pea [1]; Lacombe, Alberta, 1997, Grande): 67.0 b | Yield (field pea [1]; Lacombe, Alberta, 1997, Grande): 6507 b | Emergence (field pea [1]; Lacombe, Alberta, 1997, Radley): 87.3 a | Yield (field pea [1]; Lacombe, Alberta, 1997, Radley): 4300 a | increased emergence by (field pea [1]; [11]): 38% | increased yield by (field pea [1]; [11]): 29% | Emergence (field pea [1]; Morden, Manitoba, 1996, Grande): 64.9 a | Yield (field pea [1]; Morden, Manitoba, 1996, Grande): 4541 a | Emergence (field pea [1]; Morden, Manitoba, 1996, Radley): 74.1 a | Yield (field pea [1]; Morden, Manitoba, 1996, Radley): 3286 a | Emergence (field pea [1]; Morden, Manitoba, 1997, Grande): 65.0 a | Yield (field pea [1]; Morden, Manitoba, 1997, Grande): 1878 a | Emergence (field pea [1]; Morden, Manitoba, 1997, Radley): 79.1 a | Yield (field pea [1]; Morden, Manitoba, 1997, Radley): 1064 c | increased yield by (field pea [1]; average of the four station years, two sites): 12% | Dry wt. (Fusarium solani [2]): 0.27 a g/plant | Emergence (Fusarium solani [2]): 57.5 a % | Fresh wt. (Fusarium solani [2]): 2.7 a g/plant | Root rot severity (Fusarium solani [2]): 3.3 ab 0-9 | Emergence (Sclerotinia sclerotiorum [3]; 1996, AC Tamor): 41.8 a | Yield (Sclerotinia sclerotiorum [3]; 1996, AC Tamor): 4327 a | Emergence (Sclerotinia sclerotiorum [3]; 1996, Radley): 48.9 a | Yield (Sclerotinia sclerotiorum [3]; 1996, Radley): 2598 a | Emergence (Sclerotinia sclerotiorum [3]; 1997, AC Tamor): 49.7 a | Yield (Sclerotinia sclerotiorum [3]; 1997, AC Tamor): 5402 b | Emergence (Sclerotinia sclerotiorum [3]; 1997, Radley): 50.5 a | Yield (Sclerotinia sclerotiorum [3]; 1997, Radley): 5049 a | Emergence (Rhizoctonia solani; 1996, AC Tamor): 45.5 a | Yield (Rhizoctonia solani; 1996, AC Tamor): 2497 a | Emergence (Rhizoctonia solani; 1996, Radley): 47.4 a | Yield (Rhizoctonia solani; 1996, Radley): 1589 a | increased emergence by (Rhizoctonia solani; 1996, average of two varieties): 2% | reduced yield by (Rhizoctonia solani; 1996, average of two varieties): 12.5% | effect on emergence (Rhizoctonia solani; 1997): increased emergence significantly | effect on yield (Rhizoctonia solani; 1997): did not increase the yield | Emergence (Rhizoctonia solani; 1997, AC Tamor): 76.0 a | Yield (Rhizoctonia solani; 1997, AC Tamor): 5367 a | Emergence (Rhizoctonia solani; 1997, Radley): 58.6 b | Yield (Rhizoctonia solani; 1997, Radley): 4666 a | Emergence (Aphanomyces euteiches; 1998, Carneval): 88.1 a | Yield (Aphanomyces euteiches; 1998, Carneval): 6122 a | Emergence (Aphanomyces euteiches; 1998, Radley): 91.9 a | Yield (Aphanomyces euteiches; 1998, Radley): 5110 a | Emergence (Aphanomyces euteiches; 1999, Carneval): 90.3 a | Yield (Aphanomyces euteiches; 1999, Carneval): 4986 a | Emergence (Aphanomyces euteiches; 1999, Radley): 81.0 a | Yield (Aphanomyces euteiches; 1999, Radley): 4315 a | Dry wt. (Fusarium oxysporum): 0.34 a g/plant | Emergence (Fusarium oxysporum): 86.3 a % | Fresh wt. (Fusarium oxysporum): 3.1 a g/plant | Root rot severity (Fusarium oxysporum): 1.3 a 0-9 | Dry wt. ([4]; Barley, Argyle): 0.32 a g/plant | Emergence ([4]; Barley, Argyle): 93.9 a % | Fresh wt. ([4]; Barley, Argyle): 1.24 a g/plant | Root rot incidence ([4]; Barley, Argyle): 10.8 b % | Root rot severity ([4]; Barley, Argyle): 0.5 b 0-9 | Dry wt. ([4]; Barley, Manley): 0.22 a g/plant | Emergence ([4]; Barley, Manley): 84.3 a % | Fresh wt. ([4]; Barley, Manley): 1.04 a g/plant | Root rot incidence ([4]; Barley, Manley): 77.8 a % | Root rot severity ([4]; Barley, Manley): 4.2 ab 0-9 | Dry wt. ([4]; Wheat, Katepwa): 0.23 a g/plant | Emergence ([4]; Wheat, Katepwa): 70.7 a % | Fresh wt. ([4]; Wheat, Katepwa): 0.96 a g/plant | Root rot incidence ([4]; Wheat, Katepwa): 12.5 ab % | Root rot severity ([4]; Wheat, Katepwa): 0.7 ab 0-9 | Dry wt. ([4]; Wheat, Plenty): 0.16 a g/plant | Emergence ([4]; Wheat, Plenty): 88.4 a % | Fresh wt. ([4]; Wheat, Plenty): 0.79 a g/plant | Root rot incidence ([4]; Wheat, Plenty): 10.1 b % | Root rot severity ([4]; Wheat, Plenty): 0.6 b 0-9 | Dry wt. ([4]; Wheat, Sceptre): 0.14 a g/plant | Emergence ([4]; Wheat, Sceptre): 52.4 a % | Fresh wt. ([4]; Wheat, Sceptre): 0.65 a g/plant | Root rot incidence ([4]; Wheat, Sceptre): 24.7 b % | Root rot severity ([4]; Wheat, Sceptre): 1.1 b 0-9 | reduced root rot incidence by [4, 12]: 31% | reduced root rot severity by [4, 12]: 38% | Emergence (Mycosphaerella pinodes [5]; 1996, AC Tamor): 76.3 a | Yield (Mycosphaerella pinodes [5]; 1996, AC Tamor): 2140 ab | Emergence (Mycosphaerella pinodes [5]; 1996, Radley): 84.5 a | Yield (Mycosphaerella pinodes [5]; 1996, Radley): 1623 a | Emergence (Mycosphaerella pinodes [5]; 1997, AC Tamor): 80.0 a | Yield (Mycosphaerella pinodes [5]; 1997, AC Tamor): 5645 a | Emergence (Mycosphaerella pinodes [5]; 1997, Radley): 80.2 a | Yield (Mycosphaerella pinodes [5]; 1997, Radley): 3328 a | Emergence (Fusarium solani [6]; 1996, AC Tamor): 76.1 a | Yield (Fusarium solani [6]; 1996, AC Tamor): 5374 a | Emergence (Fusarium solani [6]; 1996, Radley): 81.4 a | Yield (Fusarium solani [6]; 1996, Radley): 3674 a | Emergence (Fusarium solani [6]; 1997, AC Tamor): 66.2 a | Yield (Fusarium solani [6]; 1997, AC Tamor): 5600 a | Emergence (Fusarium solani [6]; 1997, Radley): 65.7 b | Yield (Fusarium solani [6]; 1997, Radley): 3379 a | Dry wt. (Mycosphaerella pinodes [7]): 0.32 a g/plant | Emergence (Mycosphaerella pinodes [7]): 67.5 a % | Fresh wt. (Mycosphaerella pinodes [7]): 3.1 a g/plant | Root rot severity (Mycosphaerella pinodes [7]): 2.3 a 0-9 | Emergence (Fusarium oxysporium; 1996, AC Tamor): 78.3 a | Yield (Fusarium oxysporium; 1996, AC Tamor): 5203 a | Emergence (Fusarium oxysporium; 1996, Radley): 85.9 ab | Yield (Fusarium oxysporium; 1996, Radley): 2442 a | Emergence (Fusarium oxysporium; 1997, AC Tamor): 84.0 a | Yield (Fusarium oxysporium; 1997, AC Tamor): 6625 a | Emergence (Fusarium oxysporium; 1997, Radley): 63.8 ab | Yield (Fusarium oxysporium; 1997, Radley): 5037 b | Dry wt. (Sclerotinia sclerotiorum [8]; Field pea (cv. Radley)): 0.23 a g/plant | Emergence (Sclerotinia sclerotiorum [8]; Field pea (cv. Radley)): 68.1 a % | Fresh wt. (Sclerotinia sclerotiorum [8]; Field pea (cv. Radley)): 2.2 a g/plant | Root rot severity (Sclerotinia sclerotiorum [8]; Field pea (cv. Radley)): 3.2 ab 0-9 | effect on dry weight compared to the nontreated control (Sclerotinia sclerotiorum [8]; greenhouse experiments): Neither ACM941 nor thiram fungicide showed an increase in dry weight | Emergence (field pea [9]; Early seeding, 1995, AC Tamor): 66.7 a | Yield (field pea [9]; Early seeding, 1995, AC Tamor): 4934 a | Emergence (field pea [9]; Early seeding, 1995, Radley): 72.4 a | Yield (field pea [9]; Early seeding, 1995, Radley): 4566 a | Emergence (field pea [9]; Early seeding, 1996, AC Tamor): 81.6 a | Yield (field pea [9]; Early seeding, 1996, AC Tamor): 2069 b | Emergence (field pea [9]; Early seeding, 1996, Radley): 79.5 a | Yield (field pea [9]; Early seeding, 1996, Radley): 1295 a | Emergence (field pea [9]; Late seeding, 1995, AC Tamor): 35.8 b | Yield (field pea [9]; Late seeding, 1995, AC Tamor): 2454 a | Emergence (field pea [9]; Late seeding, 1995, Radley): 55.0 a | Yield (field pea [9]; Late seeding, 1995, Radley): 3235 a | Emergence (field pea [9]; Late seeding, 1996, AC Tamor): 87.2 a | Yield (field pea [9]; Late seeding, 1996, AC Tamor): 2857 a | Emergence (field pea [9]; Late seeding, 1996, Radley): 84.7 a | Yield (field pea [9]; Late seeding, 1996, Radley): 1706 a | Emergence (field pea [9]; [13]): 62.8 a | Yield (field pea [9]; [13]): 3855 a | Emergence (field pea [9]; Optimum seeding, 1995, Radley): 81.3 a | Yield (field pea [9]; Optimum seeding, 1995, Radley): 2901 a | Emergence (field pea [9]; [14]): 75.5 a | Yield (field pea [9]; [14]): 3152 a | Emergence (field pea [9]; Optimum seeding, 1996, Radley): 84.7 a | Yield (field pea [9]; Optimum seeding, 1996, Radley): 1580 a
